Data taken from patent publication US7629317B2, “Control of growth and repair of gastro-intestinal tissues by gastrokines and inhibitors” (The University of Chicago, priority 2001, dated 2009).
“And” between values parts separate entries of the source, which are not always exact repeats. Equal entries are not always repeated. “Also recorded” adds a separate entry of the source.

Columns and labels:
Klebsiella pneumoniae = assay: Growth of other bacteria and fungi; format: cell-based
IEC-6 cells = assay: Growth of intestinal epithelial IEC-6 cells (cell count); format: cell-based, rat
Protocol: IEC-6 cells were grown in 60-mm dishes. […] Values are means±SE for 3 cultures.
(§1) To characterize the capacity of gastric and intestinal cells to respond to AMP-18, AGS gastric adenocarcinoma cells, HAE human gastric antrum mucosa primary cultures transformed with SV40 large T antigen, rat diploid small intestinal epithelial cells of the IEC-6 (FIG. 15) and IEC-18 lines, NCI N-87 gastric carcinoma cells, and SK-GT5 gastroesophageal adenocarcinoma cells were studied; human WI-38 fibroblasts and HeLa cells served as non-GI control cell lines. Mitogenesis was assayed by performing cell counts 3 to 4 days after exposing cells to the agent of interest, trypsinizing the culture to prepare single cells, and confirming this while counting them in a hemocytometer.

HAE cells [1] = assay: Wound restitution (migration) of scrape-wounded HAE cell monolayers; format: cell-based, human
Protocol: (§2) To measure growth (left panel), HAE cells were plated in 60-mm dishes. Peptide 77-97 (8 μg/ml), or EGF (50 ng/ml), or both were added to the medium and the number of cells counted 4 days later. […] Values are means±SE for 3 cultures. To measure migration (right panel), cells were grown in 60-mm dishes to prepare a confluent monolayer. The medium was aspirated and replaced with fresh medium containing 0.01% calf serum (CS). The monolayer was mechanically wounded by scraping with a razor blade. Detached cells were removed by aspirating medium, and rinsing the remaining cells twice with fresh medium containing 0.01% CS. Fresh medium (5 ml) containing CS (0.01%) and insulin (100 U/L) was added to wounded cultures. Either peptide 77-97 (8 μg/ml), EGF (50 ng/ml), or both were added to duplicate cultures. Migration was assessed at 24, 48 and 72 hr after wounding by measuring the distance (in mm) that cells had migrated from the wound edge using a microscope eyepiece reticle (10-mm long; 0.1-mm markings). Migrating cells at 12 randomly chosen sites along a 0.25-mm stretch of the wound edge were measured at 40-fold magnification. Migration at 2 different sites was measured for each of 2 separate wounds made in each culture. Values are the mean distance cells moved into the denuded area from the edge of 4 different wounds in 2 cultures±SE.
Confluent monolayer cultures were mechanically wounded by scraping with a razor blade, and the distance that cells migrated from the wound edge was measured using a microscope eyepiece reticle.

Caco2/bbe (C2) cells = assay: Transepithelial electrical resistance (TER) of Caco2/bbe (C2) cell monolayers after injury; format: cell-based, human
Protocol: Panel A: When a stable TER was reached (330 Ω·cm^2) in MDCK cell monolayers the medium was changed to DMEM containing FBS (0.2%), and either peptide 77-97 (8 μg/ml) or EGF (50 ng/ml). After 18 hr, peptide 77-97 or EGF were added to the specified wells. One hour later monochloramine (0.1 mM), like the other agents, was added to the apical and basal compartments of the Transwell. […] Panels B, C: Caco2/bbe (C2) subclone monolayers were grown on collagen-coated polycarbonate filters until a stable TER was reached (225 Ω·cm^2). Spent medium was replaced with fresh medium containing FBS (0.1%) alone or with peptide 77-97 (8 μg/ml). After 18 hr, monochloramine (0.3 mM, B) or indomethacin (0.1 mM, C) was added to both compartments of the Transwell. At time 0, cultures received either vehicle (control), vehicle plus oxidant or indomethacin, or peptide 77-97 and oxidant or indomethacin. TER of injured cultures treated with vehicle decreased by ˜35% at 90 min, whereas peptide-treated cultures declined ˜10%.
C2 cell monolayers were grown in DMEM containing FBS (5%) and transferrin (10 μg/ml) on collagen-coated polycarbonate filters until a stable TER was reached (225 Ωcm^2). At time 0, cells were exposed to no DSS (control), or DSS (4%) in the upper compartment of the Transwell. AMP peptide 77-97 (8 μg/ml) was added to the upper and lower compartments of the Transwell 1 day prior to the addition of DSS at time 0. TER of DSS-injured cultures treated with vehicle decreased by ˜70% at 45 min, whereas peptide-treated cultures declined ˜10% at that time. […] Values are means for ≧6 cultures.
Confluent C2 cell monolayers were prepared on Transwells until a stable TER was established. Medium was replaced with fresh medium containing FBS (0.1%) alone (control), or with either rhAMP-18 (100 nanomolar) or peptide 77-97 (3.7 micromolar). After 18 hr, monochloramine (0.3 mM) was added to both compartments of the Transwell, and cultures received either vehicle (control), vehicle plus oxidant, rhAMP-18 and oxidant, or peptide 77-97 and oxidant, after which TER was measured.
To determine whether AMP peptide could speed recovery of TER after DSS-induced colonic cell injury, a highly sought-after functional characteristic of an agent designed to treat IBD, C2 cell monolayers were exposed to DSS (5%) for 10 min which reduced TER to 33±6% of the control value (FIG. 29, left panel). DSS was removed by aspirating the medium and replacing it with fresh medium. AMP peptide 77-97 (8 μg/ml) or vehicle was added to the culture medium, and TER was measured 18 hr later. In the presence of the vehicle, TER increased from 33% to 66±7% of the control value, whereas cells exposed to AMP peptide reached a value 112±4% of control.
To determine if the cytoprotective effect of AMP peptide is mediated at the level of the actin cytoskeleton, C2 cell monolayers were exposed to cytochalasin D, an agent known to disrupt actin filaments and compromise barrier function (Madara et al., 1986).
To determine if AMP peptide could play a cytoprotective role in GDS, a study was carried out in C2 cell monolayers that were exposed to the PA-I lectin. […] Next the effect of AMP peptide was studied in the mouse model of P. aeruginosa-induced-GDS (Laughlin et al., 2000) using female Balb/c mice subjected to 30% hepatectomy, injection of a solution of living P. aeruginosa into the cecum, and food deprivation postoperatively. All 8 of the mice survived surgery.

WI-38 fibroblasts = assay: Growth of WI-38 fibroblasts (non-GI control); format: cell-based, human; settings: peptide up to 8 μg/ml
Protocol: as §1

Pseudomonas aeruginosa = assay: Growth of other bacteria and fungi; format: cell-based
Escherichia coli = assay: Growth of other bacteria and fungi; format: cell-based
AGS cells = assay: Growth of gastric epithelial AGS cells (cell count four days later); format: cell-based, human
Protocol: as §1

HAE cells [2] = assay: Growth of human antrum epithelial (HAE) cells (cell count 4 days later); format: cell-based
Protocol: as §2, §1

[3] = peptide 77-97 8 μg/ml + EGF 50 ng/ml

For “LDALVKEKKLQGKGPGGPPPK [97–117, peptide 77-97 of the mature protein, same as 97-117 of the human precursor]”, the “growth of Klebsiella pneumoniae” value (Klebsiella pneumoniae) was “did not alter the growth”, the “growth stimulation of IEC-6 cells (in words)” value (IEC-6 cells) was “stimulated growth in a concentration-dependent manner” and the “concentration at near-maximal growth stimulation” value (IEC-6 cells; FIG. 15, center panel, listed as AMP peptide) was 0.5 μg/ml and 0.23 μM. The “potency compared with EGF” value (IEC-6 cells; peptide 1 μg/ml vs EGF 50 ng/ml) was “more potent than EGF”, the “migration from the wound edge compared with vehicle” value (HAE cells [1]; peptide 8 μg/ml, EGF 50 ng/ml, 24-72 hr) was “migrated further” and the “migration, peptide and EGF acting together” value (HAE cells [1]; [3]) was “markedly enhanced migration”. The “TER after PA-I lectin (in words)” value (Caco2/bbe (C2) cells; 4 hr) was “nearly unchanged”, the “decline of TER after PA-I lectin” value (Caco2/bbe (C2) cells; 4 hr, vehicle ~22%) was 0-5% and the “decline of TER of DSS-injured cultures” value (Caco2/bbe (C2) cells; DSS 4%, 45 min, peptide 8 μg/ml 1 day prior, vehicle ~70%) was about 10%. The “TER 18 hr after removal of DSS” value (Caco2/bbe (C2) cells; DSS 5% for 10 min, peptide 8 μg/ml, vehicle 66±7%) was 112±4 % of control, the “TER after cytochalasin D” value (Caco2/bbe (C2) cells; cytochalasin D 0.01 μg/ml, 2 hr, peptide 8 μg/ml 18 hr pretreatment, vehicle -34%, listed as AMP peptide) was “did not decline significantly; also recorded: prevented the decline” and the “decline of TER of injured cultures” value (Caco2/bbe (C2) cells; monochloramine 0.3 mM or indomethacin 0.1 mM, 90 min, peptide 8 μg/ml, vehicle ~35%) was about 10%. The “decline in TER after monochloramine” value (Caco2/bbe (C2) cells; monochloramine 0.3 mM, 45 min, rhAMP-18 100 nanomolar or peptide 3.7 micromolar pre-treatment, oxidant alone ~35%) was about 10%, the “effect on TER of non-injured cells” value (Caco2/bbe (C2) cells; peptide 8 μg/ml) was “did not alter” and the “growth stimulation of WI-38 fibroblasts” value (WI-38 fibroblasts) was “does not stimulate growth”. For the same sequence, the “growth stimulation of WI-38 fibroblasts” value (WI-38 fibroblasts; listed as AMP peptide) was “failure”, the “growth of Pseudomonas aeruginosa” value (Pseudomonas aeruginosa) was “did not alter the growth” and the “growth of Escherichia coli” value (Escherichia coli) was “did not alter the growth”. The “growth stimulation together with EGF” value (AGS cells; [3]) was “additive”, the “growth stimulation of AGS cells (in words)” value (AGS cells; peptide 77-97 8 μg/ml, EGF 50 ng/ml at saturating doses) was “stimulated growth; also recorded: mitogenic” and the “proliferation together with EGF” value (HAE cells [2]; [3]) was “additive”. For the same sequence, the “proliferation of HAE cells (in words)” value (HAE cells [2]; peptide 77-97 8 μg/ml, EGF 50 ng/ml, 4 days) was “stimulated proliferation”.
